Experimental findings from US5583155A, “6-amino-1,2-benzopyrones useful for treatment of viral diseases” (Octamer, Inc., priority 1994, dated 1996) are described below.

Structures are written as SMILES.

What is called inhibition is how much of the control response was suppressed.

For the test, the system named is Influenza virus. The test is described as follows: microbe, parasite or virus in culture. The class given is cell-based, Influenza virus (patient isolate).

For the molecule `Nc1ccc2oc(=O)ccc2c1` [6-ABP, 6-amino-1,2-benzopyrone], the “Virus Titer +6-ABP (Influenza)” value (1 mM 6-ABP, 24 hours before infection, highest dilution that caused 50% hemagglutination) is recorded as 1 × 10^4. Besides, under “6-ABP treatment”, the “effect on Influenza virus growth” value is “no effect”. For the same molecule, the inhibition at 1000 µM (unidentified influenza virus, read-out: % Inhibition (Influenza)) was determined as 0%.
